For series [1], the system named is rabbit ventricular cardiomyocytes. Kind of series: Contractile dysfunction test induced by doxorubicin (sarcomere shortening of isolated cardiomyocytes). The series is classed as cell-based. As to the method: (§1) Isolated ventricular cells are obtained from New Zealand male rabbit hearts as described in A. d'Anglemont de Tassigny et al., Fund. Clin. Pharmacol., 18: pp. 531-38, 2004. Briefly, the rabbits (2.0-2.5 kg) are anaesthesized with a pentobarbital (50 mg/kg) solution and then receive heparin (200 IU/kg). The hearts are excised and immediately perfused, for 10-15 minutes by means of a Langendorff apparatus without recirculation with an oxygenated (calcium-free) tyrode isotonic solution (95%, 2-5% CO2) (in mM: NaCl 135, KCl 5.4, Na2PO4 0.33, MgCl2 1.0, HEPES 10, pH adjusted to 7.4 with 1N NaOH at 37° C., 280-300 mOsmol/kgH2O). Next, all the hearts were perfused for 3 minutes in a “recirculation” mode with the same calcium-free Tyrode solution (coronary flow rate, 10-15 mL/min) added with 1 mg/mL of type II collagenase and 0.28 mg/mL of type XIV protease. Finally all the hearts are perfused in a mode without recirculation with the same solution of Tyrode supplemented with 0.3 mM CaCl2 for 10 min. The left ventricle is removed and cut into small pieces; cell dissociation is achieved by mild mechanical stirring. Extracellular calcium is added by increments every 15 minutes, in order to reach a physiological concentration of 1.0 mM. The isolated myocytes are maintained in a medium without serum containing (in mM) NaCl 110, KCl 5.4, Na2PO4 0.33, NaHCO3 25, Glucose 5, MgCl2 0.8, CaCl2 1, pH adjusted to 7.4, right up to 1 h30 before experimentation.
The myocytes are transferred into a chamber at 37° C., continuously perfused and positioned on the stage of an inverted microscope. The chamber is perfused with a physiological buffer containing (in mM): NaCl-140; KCl 5.4; CaCl2 1; MgCl2 0.8; HEPES 10 and glucose 5.6 (pH=7.4; 290 mOsmol/kgH2O).
Contraction of the myocytes is induced once a second (1 Hz) with platinum field electrodes placed in the chamber and connected to a simulator. The images are captured continuously with a ×20 objective and transmitted to a CCD camera at a rate of 240 samples/s. […]
The myocytes were selected for the study according to the following criterion: a rod-like aspect with very apparent striations and no intracellular vacuola, no spontaneous contraction when they are stimulated with 1 mM Ca^2+, and with constant rest length and contraction amplitude. The length of the sarcomers was measured by a video image analysis program and the data were captured at a rate of 240 samples/s. […]
Apoptosis is induced in isolated cardiomyocytes by exposing them for 3 to 8 hrs to 1 μM of doxorubicin added in an isotonic solution containing (in mM) NaCl 110, KCl 5.4, Na2PO4 0.33, NaHCO3 25, Glucose 5, MgCl2 0.8, CaCl2 1, pH adjusted to 7.4. […] The contractility of cardiomyocytes was measured every hour during the 8 hrs of exposure to doxorubicin. […]

The test system is the same in series [2]. Put plainly: Apoptosis by annexin V marking in doxorubicin-exposed cardiomyocytes. The format is cell-based. The conditions noted are these: 3 hrs after doxorubicin, control 100%. The method, then: as §1
Marking phosphatidylserine with annexin V was used as a quantitative method for measuring apoptosis by using the MiniMacs cell isolation kit (Miltenyi Biotec, Bergisch, Gladbach, Germany). Briefly, the cells exposing phosphatidylserine are marked with annexin V microbeads magnetically, and then passed into a column placed in a magnetic field. The marked cells (which have magnetically marked phosphatidylserine) are retained in the column whereas the non-marked ones (necrotic cells and non-apoptotic cells) are not retained. The column is removed from the magnetic field; the magnetically retained cells exposing phosphatidylserine are eluted as a positive fraction and counted with a Mallassez cell counter. The percentage of apoptotic cells is then referred to the initial number of cells.
Apoptosis is induced in isolated cardiomyocytes by exposing them for 3 to 8 hrs to 1 μM of doxorubicin added in an isotonic solution containing (in mM) NaCl 110, KCl 5.4, Na2PO4 0.33, NaHCO3 25, Glucose 5, MgCl2 0.8, CaCl2 1, pH adjusted to 7.4. Annexin V marking was carried out 3 hrs after the beginning of exposure to doxorubicin since this phenomenon appears very early in the apoptotic cascade. […] The contractility of cardiomyocytes was measured every hour during the 8 hrs of exposure to doxorubicin. […]

Another series deals with caspase-3. Put plainly: Apoptosis by caspase-3 activity measurement in doxorubicin-exposed cardiomyocytes. The format is cell-based, rabbit. The conditions noted are these: 8 hrs after exposure, control 18±9 fmol/min. As to the method:
as §1
Caspase-3 activity is used as a quantitative method for measuring apoptosis. Briefly, the cells are lysed and the supernatant is used for caspase-3 activity measurement by using the AK-005 kit (Biomol Research Laboratories, Plymouth Meeting, Pa., USA). The fluorogenic substrate for measuring caspase-3 activity (DEVD) is marked with the fluorochrome, 7-amino-4-methyl coumarin (AMC) which produces […] fluorescence detectable in UV light at 360/460 nm for 210 min. AMC is released from the substrate by cleavage by caspase-3, the expression of the enzyme is expressed in fmol/min.
Apoptosis is induced in isolated cardiomyocytes by exposing them for 3 to 8 hrs to 1 μM of doxorubicin added in an isotonic solution containing (in mM) NaCl 110, KCl 5.4, Na2PO4 0.33, NaHCO3 25, Glucose 5, MgCl2 0.8, CaCl2 1, pH adjusted to 7.4. Annexin V marking was carried out 3 hrs after the beginning of exposure to doxorubicin since this phenomenon appears very early in the apoptotic cascade. Caspase-3 activity measurements were conducted 8 hrs after exposure to doxorubicin since this phenomenon takes place later in the apoptosis phenomenon. The contractility of cardiomyocytes was measured every hour during the 8 hrs of exposure to doxorubicin. After all the treatments, the cells were compared with control cardiomyocytes not exposed to doxorubicin. […]

A further series has as its system monkeys. Kind of series: Toxicological study in monkeys. The series is classed as in vivo. The conditions noted are these: oral, increasing daily doses up to 1,500 mg/kg over 10 days.
The next series concerns Male CD1 adult mice. Kind of series: In vivo model of acute hepatotoxicity induced by Jo2 anti-Fas antibody (ALAT assay, survival). An excerpt: An acute hepatic damage model may be induced by a single injection of the Jo2 anti-Fas antibody (Ogasawara et al., Nature, August 1993), producing severe hepatic damages and resembling viral, auto-immune or drug-induced hepatitis.
Alanine Aminotransferase (ALAT) also called Serum Glutamic Pyruvic Transaminase (SGPT) is an enzyme present in hepatocytes.
The conducted experimentation consisted in intoxicating animals with Jo2 followed by an assay of ALATs and of testing the cholest-4-en-3-one oxime capability of protecting hepatocytes.
Male CD1 adult mice from the breeder “Elevage Janvier”, (Le Genest-Saint-Isle, France) were used. The animals were identified individually and had free access to water and food.
The stock solution of monoclonal hamster anti-mouse CD95 (Fas) antibody called Jo2, from Pharmingen (BD Biosciences, ref. 554254 batch 66081) is at a concentration of 1 mg/mL in water. The dilutions used are produced in 0.9% sodium chloride in water.
The desired amount of cholest-4-en-3-one oxime is weighed and milled into a fine powder, and then suspended (60 mg/ml) in maize oil. The compound is administered orally (by force-feeding) at a concentration of 5 ml/kg.
A pre-treatment with cholest-4-en-3-one oxime is carried out at a dose of 300 mg/kg per oral administration 4 hrs before administering the Jo2 antibody. […]

The test system of a further series is mice. Kind of series: Toxicological study in mice. The series is classed as in vivo. The settings on record: oral, sub-cutaneous, intra-peritoneal and intravenous routes, doses up to 300 mg/kg/day, daily, as far as 28 days.

Regarding `COc1cccc2c1C(=O)c1c(O)c3c(c(O)c1C2=O)C[C@@](O)(C(=O)CO)C[C@@H]3O[C@H]1C[C@H](N)[C@H](O)[C@H](C)O1` [doxorubicin, reference compound], the “shortening of the peak relatively to the base line” value in series [1] (1 μM doxorubicin alone, after 4 hours of exposure, control −19.49±2.06%, n=5) is on record as −53.20±7.70%. Besides, the “change in % of annexin V marking” value in series [2] (1 μM doxorubicin alone) came out at 291%. Moreover, the caspase-3 activity in the series on caspase-3 (1 μM doxorubicin alone) is 120 ± 15 fmol/min.

Take `CC(C)CCC[C@@H](C)[C@H]1CC[C@H]2[C@@H]3CCC4=CC(=NO)CC[C@]4(C)[C@H]3CC[C@]12C` [cholest-4-en-3-one oxime]: the “shortening of the peak relatively to the base line” value is recorded as −25.35±0.18% in series [1] (0.3 μM compound, 15 min pretreatment, 1 μM doxorubicin, after 4 hrs of exposure); −15.66±5.72% in series [1] (1 μM compound, 15 min pretreatment, 1 μM doxorubicin, after 4 hrs of exposure); −13.95±3.17% in series [1] (3 μM compound, 15 min pretreatment, 1 μM doxorubicin, after 4 hrs of exposure). Further, the toxicity entry with monkeys is given as “did not reveal any toxicity”; in the series on mice it was “did not show any significant toxicity”. The entries for the “change in % of annexin V marking” value in series [2] (doxorubicin + 0.3 μM compound), in series [2] (doxorubicin + 1 μM compound) and in series [2] (doxorubicin + 3 μM compound) were 130%, 121% and 115.5%, respectively. The “ALAT activity (U/L) Mean +/− SEM (n)” value in the series with Male CD1 adult mice (300 mg/kg oral 4 hrs before Jo2 125 μg/kg i.p., measured 24 hrs after Jo2, control 2,586 ± 474, p = 0.0037) was 1,136 ± 175 (20) U/L. Besides, the “death of mice within 24 hrs following the Jo2 injection” value with Male CD1 adult mice (300 mg/kg oral, 4 hrs before the Jo2 antibody) was “prevent the death of mice”. The caspase-3 activity with caspase-3 (doxorubicin + 0.3 μM compound) is 33 ± 9 fmol/min; in the series on caspase-3 (doxorubicin + 1 μM compound) it was 18 ± 8 fmol/min; with caspase-3 (doxorubicin + 3 μM compound), 11 ± 4 fmol/min.

These data come from patent US9320745B2, “Use of cholest-4-en-3-one derivatives for obtaining a cytoprotective drug” (TROPHOS, priority 2006, dated 2016).
